From ChEMBL document CHEMBL5331122, “Structure-Activity Relationship Study of Antimicrobial Peptide PE2 Delivered Novel Linear Derivatives with Potential of Eradicating Biofilms and Low Incidence of Drug Resistance” (J Med Chem, 2023)
Calls of active or inactive are those of the source. Where a SMILES comes first, the peptide text is derived from it. Bridges are numbered along the chain shown (N, C = ends). [ ]: non-standard residue; d: D form. The star is where a group is joined. Heptanoyl(6-Me) = CC(C)CCCCC(=O)*; dDab = NCC[C@@H](N)C(=O)O; Dab = NCC[C@H](N)C(=O)O

Assays:
[1] = tested on: Staphylococcus aureus; assay: Bactericidal activity against Staphylococcus aureus ATCC 25923 assessed as inhibition of bacterial growth at 2 times MIC measured upto 360 mins by time-kill assay; format: functional, organism-based
[2] = tested on: Cell membrane; assay: Induction of outer membrane permeabilization in Escherichia coli ATCC 25922 assessed as increase in fluorescence intensity at 2 times MIC measured for 12 hrs by NPN uptake assay; format: subcellular
[3] = tested on: Cell membrane; assay: Induction of outer membrane permeabilization in Escherichia coli ATCC 25922 assessed as increase in fluorescence intensity at 1 to 4 times MIC measured for 12 hrs by NPN uptake assay; format: subcellular
[4] = tested on: Staphylococcus aureus; assay: Inhibition of biofilm formation in Staphylococcus aureus ATCC 25923 assessed as inhibition of biofilm formation at 1/2 times MIC incubated for 24 hrs by crystal violet staining based analysis; format: functional, organism-based
[5] = tested on: Staphylococcus aureus; assay: Inhibition of biofilm formation in Staphylococcus aureus ATCC 25923 assessed as inhibition of biofilm formation at 1 times MIC incubated for 24 hrs by crystal violet staining based analysis; format: functional, organism-based
[6] = tested on: Escherichia coli; assay: Bactericidal activity against Escherichia coli ATCC 25922 assessed as inhibition of bacterial growth at 2 times MIC measured upto 360 mins by time-kill assay; format: functional, organism-based
[7] = tested on: Klebsiella pneumoniae; assay: Antibacterial activity against Klebsiella pneumoniae ATCC 700603 infected in BALB/c mouse pneumonia model assessed as reduction in lung bacterial load at 5 to 10 mg/kg, ip measured at 4 to 12 hrs; format: functional, organism-based; details: dose 5-10 mg/kg, time 4-12 hrs
[8] = tested on: Staphylococcus aureus; assay: Induction of membrane morphological changes in Staphylococcus aureus ATCC 25923 assessed as appearance of blistered bacterial cells at 4 times MIC measured at 0.5 to 2 hrs by SEM analysis; format: functional, organism-based; details: time 0.5-2 hrs
[9] = tested on: Staphylococcus aureus; assay: Bactericidal activity against Staphylococcus aureus ATCC 25923 assessed as inhibition of bacterial growth at 1 times MIC measured upto 360 mins by time-kill assay; format: functional, organism-based
[10] = tested on: Escherichia coli; assay: Additive antibacterial activity against Escherichia coli ATCC 25922 assessed as bacterial growth inhibition incubated for 18 hrs in presence of rifampicin by checkerboard assay; format: functional, organism-based
[11] = tested on: Staphylococcus aureus; assay: Induction of drug resistance against Staphylococcus aureus ATCC 25923 measured upto 15 passages by sequential passaging method; format: functional
[12] = tested on: Staphylococcus aureus; assay: Inhibition of biofilm formation in Staphylococcus aureus ATCC 25923 assessed as inhibition of biofilm formation at 1/4 times MIC incubated for 24 hrs by crystal violet staining based analysis; format: functional, organism-based
[13] = tested on: Escherichia coli; assay: Bactericidal activity against Escherichia coli ATCC 25922 assessed as inhibition of bacterial growth incubated upto 360 mins by time-kill assay; format: functional, organism-based
[14] = tested on: Staphylococcus aureus; assay: Induction of membrane morphological changes in Staphylococcus aureus ATCC 25923 assessed as appearance of broken bacterial cells at 4 times MIC measured at 0.5 to 2 hrs by SEM analysis; format: functional, organism-based; details: time 0.5-2 hrs
[15] = tested on: Escherichia coli; assay: Additive antibacterial activity against Escherichia coli ATCC 25922 assessed as bacterial growth inhibition incubated for 18 hrs in presence of gentamycin by checkerboard assay; format: functional, organism-based
[16] = tested on: Escherichia coli; assay: Inhibition of biofilm formation in Escherichia coli ATCC 25922 assessed as inhibition of biofilm formation at 1/4 times MIC incubated for 24 hrs by crystal violet staining based analysis; format: functional, organism-based
[17] = tested on: Escherichia coli; assay: Inhibition of biofilm formation in Escherichia coli ATCC 25922 assessed as inhibition of biofilm formation at 1 to 2 times MIC incubated for 24 hrs by crystal violet staining based analysis; format: functional, organism-based
[18] = tested on: Cell membrane; assay: Induction of cell membrane damage in Escherichia coli ATCC 25922 at 2 times MIC after 0.5 to 2 hrs by propidium iodide staining based flow cytometer assay; format: subcellular; details: time 0.5-2 hrs
[19] = tested on: Staphylococcus aureus; assay: Induction of membrane morphological changes in Staphylococcus aureus ATCC 25923 at 4 times MIC measured at 0.5 to 2 hrs by SEM analysis; format: functional, organism-based; details: time 0.5-2 hrs
[20] = tested on: Escherichia coli; assay: Bactericidal activity against Escherichia coli ATCC 25922 assessed as inhibition of bacterial growth at 0.5 to 2 times MIC measured at 90 mins by time-kill assay; format: functional, organism-based
[21] = tested on: Staphylococcus aureus; assay: Bactericidal activity against Staphylococcus aureus ATCC 25923 assessed as inhibition of bacterial growth at 0.5 to 2 times MIC by time-kill assay; format: functional, organism-based; details: time <= 360.0 min, TDE = time-dependent effect
[22] = tested on: Staphylococcus aureus; assay: Induction of membrane morphological changes in Staphylococcus aureus ATCC 25923 assessed as appearance of adherent bacterial cells at 4 times MIC measured at 0.5 to 2 hrs by SEM analysis; format: functional, organism-based; details: time 0.5-2 hrs
[23] = tested on: Escherichia coli; assay: Inhibition of biofilm formation in Escherichia coli ATCC 25922 assessed as inhibition of biofilm formation incubated for 24 hrs by crystal violet staining based analysis; format: functional, organism-based
[24] = tested on: Escherichia coli; assay: Antibacterial activity against Escherichia coli ATCC 25922 in presence of 10% mouse serum measured for 6 hrs; format: functional, organism-based
[25] = tested on: Cell membrane; assay: Induction of cell membrane damage in Staphylococcus aureus ATCC 25923 at 2 times MIC after 0.5 to 2 hrs by propidium iodide staining based flow cytometer assay; format: subcellular; details: time 0.5-2 hrs
[26] = tested on: Staphylococcus aureus; assay: Bactericidal activity against Staphylococcus aureus ATCC 25923 assessed as inhibition of bacterial growth at 2 times MIC measured at 120 mins by time-kill assay; format: functional, organism-based
[27] = tested on: Escherichia coli; assay: Synergistic antibacterial activity against rifampicin-resistant Escherichia coli ATCC 25922 incubated for 18 hrs by checkerboard assay; format: functional, organism-based
[28] = tested on: Staphylococcus aureus; assay: Antibiofilm activity against Staphylococcus aureus ATCC 25923 assessed as biofilm eradication at 4 times MIC incubated for 24 hrs; format: functional, organism-based
[29] = tested on: Escherichia coli; assay: Inhibition of biofilm formation in Escherichia coli ATCC 25922 assessed as inhibition of biofilm formation at 1/2 times MIC incubated for 24 hrs by crystal violet staining based analysis; format: functional, organism-based
[30] = tested on: Staphylococcus aureus; assay: Antibiofilm activity against Staphylococcus aureus ATCC 25923 assessed as biofilm eradication at 8 times MIC incubated for 24 hrs; format: functional, organism-based
[31] = tested on: Escherichia coli; assay: Induction of membrane morphological changes in Escherichia coli ATCC 25922 at 4 times MIC measured at 0.5 to 2 hrs by SEM analysis; format: functional, organism-based; details: time 0.5-2 hrs
[32] = tested on: Cell membrane; assay: Induction of cell membrane damage in Staphylococcus aureus ATCC 25923 at 2 times MIC measured at 30 mins by propidium iodide staining based flow cytometer assay; format: subcellular
[33] = tested on: Escherichia coli; assay: Bactericidal activity against Escherichia coli ATCC 25922 assessed as inhibition of bacterial growth at 0.5 to 2 times MIC by time-kill assay; format: functional, organism-based; details: time <= 360.0 min, TDE = time-dependent effect
[34] = tested on: Staphylococcus aureus; assay: Synergistic antibacterial activity against Staphylococcus aureus ATCC 25923 incubated for 18 hrs in presence of rifampicin by checkerboard assay; format: functional, organism-based
[35] = tested on: Escherichia coli; assay: Antimicrobial activity against Escherichia coli ATCC 25922 assessed as reduction in microbial growth measured for 18 hrs in presence of 512 microg/ml LPS; format: functional, organism-based
[36] = tested on: Escherichia coli; assay: Bactericidal activity against Escherichia coli ATCC 25922 assessed as inhibition of bacterial growth at 1/2 times MIC measured at 180 mins by time-kill assay; format: functional, organism-based
[37] = tested on: Staphylococcus aureus; assay: Antibacterial activity against Staphylococcus aureus ATCC 25923 in presence of 10% mouse serum measured for 6 hrs; format: functional, organism-based
[38] = tested on: Staphylococcus aureus; assay: Synergistic antibacterial activity against Staphylococcus aureus ATCC 25923 incubated for 18 hrs in presence of gentamycin by checkerboard assay; format: functional, organism-based
[39] = tested on: Escherichia coli; assay: Bactericidal activity against Escherichia coli ATCC 25922 assessed as inhibition of bacterial growth at 1 times MIC measured at 120 mins by time-kill assay; format: functional, organism-based
[40] = tested on: Staphylococcus aureus; assay: Additive antibacterial activity against Staphylococcus aureus ATCC 25923 assessed as bacterial growth inhibition incubated for 18 hrs in presence of rifampicin by checkerboard assay; format: functional, organism-based
[41] = tested on: Staphylococcus aureus; assay: Bactericidal activity against Staphylococcus aureus ATCC 25923 assessed as inhibition of bacterial growth incubated upto 360 mins by time-kill assay; format: functional, organism-based
[42] = tested on: Cell membrane; assay: Induction of outer membrane permeabilization in Escherichia coli ATCC 25922 assessed as increase in fluorescence intensity at 4 times MIC measured for 12 hrs by NPN uptake assay; format: subcellular
[43] = tested on: Staphylococcus aureus; assay: Additive antibacterial activity against Staphylococcus aureus ATCC 25923 assessed as bacterial growth inhibition incubated for 18 hrs in presence of gentamycin by checkerboard assay; format: functional, organism-based
[44] = tested on: Klebsiella pneumoniae; assay: Antibacterial activity against Klebsiella pneumoniae ATCC 700603 infected in BALB/c mouse pneumonia model at 5 to 10 mg/kg, ip measured at 4 to 12 hrs; format: functional, organism-based; details: dose 5-10 mg/kg, time 4-12 hrs
[45] = tested on: Escherichia coli; assay: Antimicrobial activity against Escherichia coli ATCC 25922 assessed as reduction in microbial growth measured for 18 hrs in presence of […] microg/ml LPS; format: functional, organism-based
[46] = tested on: Cell membrane; assay: Induction of inner membrane permeabilization in Escherichia coli ML-35 ATCC 43837 assessed as increase in fluorescence intensity at 1 to 4 times MIC incubated upto 150 mins by ONPG staining based analysis; format: subcellular
[47] = tested on: Escherichia coli; assay: Synergistic antibacterial activity against gentamycin-resistant Escherichia coli ATCC 25922 incubated for 18 hrs by checkerboard assay; format: functional, organism-based
[48] = tested on: Staphylococcus aureus; assay: Antibiofilm activity against Staphylococcus aureus ATCC 25923 assessed as biofilm eradication at 1 times MIC incubated for 24 hrs; format: functional, organism-based
[49] = tested on: Staphylococcus aureus; assay: Bactericidal activity against Staphylococcus aureus ATCC 25923 assessed as inhibition of bacterial growth at 1/2 times MIC measured upto 360 mins by time-kill assay; format: functional, organism-based
[50] = Acute toxicity in ip dosed Kunming mouse assessed as lethal dose measured upto 7 days; format: organism-based; details: Kunming, in vivo, time < 7 day
[51] = Acute toxicity in Kunming mouse assessed as survival rate at 31.7 mg/kg, ip measured after 2 hrs; format: organism-based; details: in vivo
[52] = Acute toxicity in Kunming mouse assessed as survival rate at 20 to 31.7 mg/kg, ip measured at 2 hrs; format: organism-based; details: in vivo, dose 20-31.7 mg/kg
[53] = Acute toxicity in Kunming mouse assessed as survival rate at 20 mg/kg, ip measured for 7 days; format: organism-based; details: in vivo, 168 h, time 7 day
[54] = tested on: Erythrocyte; assay: Hemolytic activity in mouse red blood cell assessed as hemolysis incubated for 1 hr; format: toxicity, cell-based; details: dose 4-256 µg/ml

CC(C)CCCCC(=O)N[C@@H](CCN)C(=O)N[C@H](C(=O)N[C@@H](CCN)C(=O)N[C@H]1CCNC(=O)[C@H]([C@@H](C)O)NC(=O)[C@H](CCN)NC(=O)[C@H](CCN)NC(=O)[C@H](CC(C)C)NC(=O)[C@@H](Cc2ccccc2)NC(=O)[C@@H](CCN)NC1=O)[C@@H](C)O ({Heptanoyl(6-Me)}-[Dab]T[Dab][Dab][dDab][dF]L[Dab][Dab]T; lactam 4-C)
inactive: inhibition [5] | Activity [9] | inhibition [29] | Activity [32] | Activity [35] | Activity [48] | Activity [49]
active: Activity [1] | Activity [2] | Activity [3] | inhibition [4] | Activity [6] | Activity [7] | Activity [8] | Activity [10] | Activity [11] | inhibition [12] | Activity [13] Dose-Dependent Effect | Activity [14] | Activity [15] | inhibition [16] | inhibition [17] | Activity [18] | Activity [19] | Activity [20] | Activity [21] Tde | Activity [22] | inhibition [23] Dose-Dependent Effect | Activity [24] | Activity [25] | Activity [26] | Activity [27] | Activity [28] | Activity [30] | Activity [31] | Activity [33] Tde | Activity [34] | Activity [36] | Activity [37] | Activity [38] | Activity [39] | Activity [40] | Activity [41] Dose-Dependent Effect | Activity [42] | Activity [43] | Activity [44] | Activity [45] | Activity [46] | Activity [47]

CC(C)CCCCC(=O)N[C@@H](CCN)C(=O)N[C@H](C(=O)N[C@@H](CCN)C(=O)N[C@H]1CCNC(=O)[C@H]([C@@H](C)O)NC(=O)[C@H](CCN)NC(=O)[C@H](CCN)NC(=O)[C@H](CC(C)C)NC(=O)[C@@H](Cc2ccccc2)NC(=O)[C@H](CCN)NC1=O)[C@@H](C)O ({Heptanoyl(6-Me)}-[Dab]T[Dab][Dab][Dab][dF]L[Dab][Dab]T; lactam 4-C)
Toxic: Activity [51] | Activity [52]
Non-Toxic: Activity [53]
26.7 mg/kg: LD50 at 168 h [50]
512 µg/mL: HC10 [54]
